Results: patent US10173991B2, “Sulfone amide linked benzothiazole inhibitors of endothelial lipase” (BRISTOL-MYERS SQUIBB COMPANY, priority 2014, dated 2019)

Target: Endothelial lipase (EL) (Homo sapiens (Human), UniProt Q9Y5X9)
Test: Endothelial lipase (EL) enzymatic assay with fluorescent substrate A10070 in DMPG vesicles
Format: biochemical
Conditions: not given
Method in brief: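 EL from conditioned medium of HT-1080 cells engineered to overexpress endogenous EL; HL partially purified from conditioned medium of HL-overexpressing COS cells. Enzyme preincubated with compound 30 min at 37° C in 50 mM HEPES pH 8.0, 50 mM NaCl, 1 mM CaCl2; DMPG vesicles carrying FRET substrate (0.11 mole fraction) then added.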

Chain of Endothelial lipase (EL) (Q9Y5X9 21-500): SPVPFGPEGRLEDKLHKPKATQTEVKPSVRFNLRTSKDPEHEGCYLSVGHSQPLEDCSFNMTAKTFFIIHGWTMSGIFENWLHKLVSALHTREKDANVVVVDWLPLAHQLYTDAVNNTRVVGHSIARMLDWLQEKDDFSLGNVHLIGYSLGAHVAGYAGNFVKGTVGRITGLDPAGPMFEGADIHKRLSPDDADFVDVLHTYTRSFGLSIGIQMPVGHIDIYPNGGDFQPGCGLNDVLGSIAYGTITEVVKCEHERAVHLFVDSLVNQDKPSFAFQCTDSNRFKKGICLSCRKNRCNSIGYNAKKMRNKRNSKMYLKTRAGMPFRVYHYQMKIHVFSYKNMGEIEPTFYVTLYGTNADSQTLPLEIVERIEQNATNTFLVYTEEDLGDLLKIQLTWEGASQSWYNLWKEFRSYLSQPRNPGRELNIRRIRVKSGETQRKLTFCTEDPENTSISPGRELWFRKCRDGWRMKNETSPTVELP

Structure (SMILES)	IC50
CS(=O)(=O)C(C(=O)NCC(=O)NC1CC1)c1nc2ccc(-c3ccc(F)nc3)cc2s1 (stereo not shown) [Example 57, N-[(cyclopropyl-carbamoyl)methyl]-2-[6-(6-fluoropyridin-3-yl)-1,3-benzothiazol-2-yl]-2-methanesulfonyl-acetamide]	47 nM
C=CCS(=O)(=O)C(C(=O)NCC(=O)NC1CC1)c1nc2ccc(-c3ccc(F)nc3)cc2s1 (stereo not shown) [Example 59, N-[(cyclopropyl-carbamoyl)methyl]-2-[6-(6-fluoropyridin-3-yl)-1,3-benzothiazol-2-yl]-2-(prop-2-ene-1-sulfonyl) acetamide]	20 nM
COCCS(=O)(=O)C(C(=O)NCC(=O)NC1CC1)c1nc2cc(-c3cccnc3C(F)(F)F)ccc2s1 (stereo not shown) [Example 61, N-[(cyclopropyl-carbamoyl)methyl]-2-(2-methoxyethane-sulfonyl)-2-{5-[2-(trifluoromethyl)pyridin-3-yl]-1,3-benzothiazol-2-yl}acetamide]	5 nM
COCCS(=O)(=O)C(C(=O)NCC(=O)NC1CC1)c1nc2cc(-c3cncc(Cl)c3)ccc2s1 (stereo not shown) [Example 62]	5 nM
COCCS(=O)(=O)C(C(=O)NCC(=O)NC1CC1)c1nc2cc(-c3ccnc(C(F)(F)F)c3)ccc2s1 (stereo not shown) [Example 63, N-[(cyclopropyl-carbamoyl)methyl]-2-(2-methoxyethane-sulfonyl)-2-{5-[2-(trifluoromethyl)pyridin-4-yl]-1,3-benzothiazol-2-yl}acetamide]	5 nM
COCCS(=O)(=O)C(C(=O)NCC(=O)NC1CC1)c1nc2cc(-c3cncc(OC)c3)ccc2s1 (stereo not shown) [Example 64, N-[(cyclopropyl-carbamoyl)methyl]-2-(2-methoxyethane-sulfonyl)-2-[5-(5-methoxypyridin-3-yl)-1,3-benzothiazol-2-yl]acetamide]	11 nM
COCCS(=O)(=O)C(C(=O)NCC(=O)NC1CC1)c1nc2cc(-c3ccc(C(F)(F)F)nc3)ccc2s1 (stereo not shown) [Example 66]	12 nM
COCCS(=O)(=O)C(C(=O)NCC(=O)NC1CC1)c1nc2cc(-c3cnnc(C)c3)ccc2s1 (stereo not shown) [Example 67, N-[(cyclopropyl-carbamoyl)methyl]-2-(2-methoxyethane-sulfonyl)-2-[5-(6-methylpyridazin-4-yl)-1,3-benzothiazol-2-yl]acetamide]	16 nM
COCCS(=O)(=O)C(C(=O)NCC(=O)NC1CC1)c1nc2cc(-c3ccc(F)nc3F)ccc2s1 (stereo not shown) [Example 68, N-[(cyclopropyl-carbamoyl)methyl]-2-[5-(2,6-difluoropyridin-3-yl)-1,3-benzothiazol-2-yl]-2-(2-methoxyethane-sulfonyl) acetamide]	19 nM
CCOc1ccc(-c2ccc3sc(C(C(=O)NCC(=O)NC4CC4)S(=O)(=O)CCOC)nc3c2)cn1 (stereo not shown) [Example 69, N-[(cyclopropyl-carbamoyl)methyl]-2-[5-(6-ethoxypyridin-3-yl)-1,3-benzothiazol-2-yl]-2-(2-methoxyethane-sulfonyl) acetamide]	23 nM
COCCS(=O)(=O)C(C(=O)NCC(=O)NC1CC1)c1nc2cc(-c3ccnc(C)c3)ccc2s1 (stereo not shown) [Example 70, N-[(cyclopropyl-carbamoyl)methyl]-2-(2-methoxyethane-sulfonyl)-2-[5-(2-methylpyridin-4-yl)-1,3-benzothiazol-2-yl]acetamide]	24 nM
COCCS(=O)(=O)C(C(=O)NCC(=O)NC1CC1)c1nc2cc(-c3ccc(N4CCCC4)nc3)ccc2s1 (stereo not shown) [Example 71, N-[(cyclopropyl-carbamoyl)methyl]-2-(2-methoxyethane-sulfonyl)-2-{5-[6-(pyaolidin-1-yl)pyridin-3-yl]-1,3-benzothiazol-2-yl} acetamide]	25 nM
COCCS(=O)(=O)C(C(=O)NCC(=O)NC1CC1)c1nc2cc(-c3ccc(Cl)nc3)ccc2s1 (stereo not shown) [Example 72, 2-[5-(6-chloropyridin-3-yl)-1,3-benzothiazol-2-yl]-N-[(cyclopropyl-carbamoyl)methyl]-2-(2-methoxyethane-sulfonyl) acetamide]	25 nM
COCCS(=O)(=O)C(C(=O)NCC(=O)NC1CC1)c1nc2cc(-c3ccncc3F)ccc2s1 (stereo not shown) [Example 73, N-[(cyclopropyl-carbamoyl)methyl]-2-[5-(3-fluoropyridin-4-yl)-1,3-benzothiazol-2-yl]-2-(2-methoxyethane-sulfonyl) acetamide]	28 nM
COCCS(=O)(=O)C(C(=O)NCC(=O)NC1CC1)c1nc2cc(-c3ccnc(OC)c3)ccc2s1 (stereo not shown) [Example 74, N-[(cyclopropyl-carbamoyl)methyl]-2-(2-methoxyethane-sulfonyl)-2-[5-(2-methoxypyridin-4-yl)-1,3-benzothiazol-2-yl]acetamide]	31 nM
COCCS(=O)(=O)C(C(=O)NCC(=O)NC1CC1)c1nc2cc(-c3cncc(F)c3)ccc2s1 (stereo not shown) [Example 75, N-[(cyclopropyl-carbamoyl)methyl]-2-[5-(5-fluoropyridin-3-yl)-1,3-benzothiazol-2-yl]-2-(2-methoxyethane-sulfonyl) acetamide]	31 nM
COCCS(=O)(=O)C(C(=O)NCC(=O)NC1CC1)c1nc2cc(-c3ccnc(F)c3)ccc2s1 (stereo not shown) [Example 76, N-[(cyclopropyl-carbamoyl)methyl]-2-[5-(2-fluoropyridin-4-yl)-1,3-benzothiazol-2-yl]-2-(2-methoxyethane-sulfonyl)acetamide]	32 nM
COCCS(=O)(=O)C(C(=O)NCC(=O)NC1CC1)c1nc2cc(-c3cnc(F)c(C)c3)ccc2s1 (stereo not shown) [Example 78, N-[(cyclopropyl-carbamoyl)methyl]-2-[5-(6-fluoro-5-methylpyridin-3-yl)-1,3-benzothiazol-2-yl]-2-(2-methoxyethane-sulfonyl) acetamide]	38 nM
COCCS(=O)(=O)C(C(=O)NCC(=O)NC1CC1)c1nc2cc(-c3ccncc3)ccc2s1 (stereo not shown) [Example 79, N-[(cyclopropyl-carbamoyl)methyl]-2-(2-methoxyethane-sulfonyl)-2-[5-(pyridin-4-yl)-1,3-benzothiazol-2-yl]acetamide]	40 nM
COCCS(=O)(=O)C(C(=O)NCC(=O)NC1CC1)c1nc2cc(-c3ccncc3Cl)ccc2s1 (stereo not shown) [Example 80, 2-[5-(3-chloropyridin-4-yl)-1,3-benzothiazol-2-yl]-N-[(cyclopropyl-carbamoyl)methyl]-2-(2-methoxyethane-sulfonyl) acetamide]	49 nM
COCCS(=O)(=O)C(C(=O)NCC(=O)NC1CC1)c1nc2cc(-c3cnc(F)cc3C)ccc2s1 (stereo not shown) [Example 81, N-[(cyclopropyl-carbamoyl)methyl]-2-[5-(6-fluoro-4-methylpyridin-3-yl)-1,3-benzothiazol-2-yl]-2-(2-methoxyethane-sulfonyl) acetamide]	58 nM
COCCS(=O)(=O)C(C(=O)NCC(=O)NC1CC1)c1nc2cc(-c3cccnc3F)ccc2s1 (stereo not shown) [Example 82, N-[(cyclopropyl-carbamoyl)methyl]-2-[5-(2-fluoropyridin-3-yl)-1,3-benzothiazol-2-yl]-2-(2-methoxyethane-sulfonyl) acetamide]	61 nM
COCCS(=O)(=O)C(C(=O)NCC(=O)NC1CC1)c1nc2cc(-c3ccc(Cl)cn3)ccc2s1 (stereo not shown) [Example 83, 2-[5-(5-chloropyridin-2-yl)-1,3-benzothiazol-2-yl]-N-[(cyclopropyl-carbamoyl)methyl]-2-(2-methoxyethane-sulfonyl)acetamide]	71 nM
COCCS(=O)(=O)C(C(=O)NCC(=O)NC1CC1)c1nc2cc(-c3cccc(OC)c3)ccc2s1 (stereo not shown) [Example 84, N-[(cyclopropyl-carbamoyl)methyl]-2-(2-methoxyethane-sulfonyl)-2-[5-(3-methoxyphenyl)-1,3-benzothiazol-2-yl]acetamide]	82 nM
COCCS(=O)(=O)C(C(=O)NCC(=O)NC1CC1)c1nc2cc(-c3cccnc3)ccc2s1 (stereo not shown) [Example 85, N-[(cyclopropyl-carbamoyl)methyl]-2-(2-methoxyethane-sulfonyl)-2-[5-(pyridin-3-yl)-1,3-benzothiazol-2-yl]acetamide]	85 nM
COCCS(=O)(=O)C(C(=O)NCC(=O)NC1CC1)c1nc2cc(-c3cncnc3C(C)C)ccc2s1 (stereo not shown) [Example 86, N-[(cyclopropyl-carbamoyl)methyl]-2-(2-methoxyethane-sulfonyl)-2-{5-[4-(propan-2-yl)pyrimidin-5-yl]-1,3-benzothiazol-2-yl}acetamide]	293 nM
CCOc1ncccc1-c1ccc2sc(C(C(=O)NCC(=O)NC3CC3)S(=O)(=O)CCOC)nc2c1 (stereo not shown) [Example 87, N-[(cyclopropyl-carbamoyl)methyl]-2-[5-(2-ethoxypyridin-3-yl)-1,3-benzothiazol-2-yl]-2-(2-methoxyethane-sulfonyl) acetamide]	346 nM
COCCS(=O)(=O)C(C(=O)NCC(=O)NC1CC1)c1nc2cc(-c3ccc(F)nc3C)ccc2s1 (stereo not shown) [Example 88, N-[(cyclopropyl-carbamoyl)methyl]-2-[5-(6-fluoro-2-methylpyridin-3-yl)-1,3-benzothiazol-2-yl]-2-(2-methoxyethane-sulfonyl) acetamide]	82 nM
COCCS(=O)(=O)C(C(=O)NCC(=O)NC1CC1)c1nc2cc(-c3cccc(F)n3)ccc2s1 (stereo not shown) [Example 89, N-[(cyclopropyl-carbamoyl)methyl]-2-[5-(6-fluoropyridin-2-yl)-1,3-benzothiazol-2-yl]-2-(2-methoxyethane-sulfonyl) acetamide]	171 nM
COCCS(=O)(=O)C(C(=O)NCC(=O)NC1CC1)c1nc2cc(-c3ccc(F)cn3)ccc2s1 (stereo not shown) [Example 90, N-[(cyclopropyl-carbamoyl)methyl]-2-[5-(5-fluoropyridin-2-yl)-1,3-benzothiazol-2-yl]-2-(2-methoxyethane-sulfonyl) acetamide]	274 nM

Same assay, conditions: EL from conditioned media of HT-1080 cells; 30 min preincubation at 37° C.

Structure (SMILES)	IC50
COCCS(=O)(=O)C(C(=O)NCC(=O)NC1CC1)c1nc2ccc(-c3ccc(N(C)C(=O)OC(C)(C)C)cc3)cc2s1 (stereo not shown) [Example 60, tert-Butyl N-{4-[2-({[(cyclopropylcarbamoyl)methyl]carbamoyl}(2-methoxyethanesulfonyl)methyl)-1,3-benzothiazol-6-yl]phenyl}-N-methylcarbamate]	3 nM
